Tests used:
HDAC-1 = HDAC-1 (Homo sapiens, UniProt Q13547); assay: Inhibition of Histone Deacetylase Enzymatic (HDAC-1) Activity; type: biochemical; settings: Table 21
Procedure: The following protocol was used to assay the compounds of the invention.
The mixture was pre-incubated for 5 minutes at room temperature. The reaction was started by bringing the temperature to 37° C. and adding 15 μl substrate. Total reaction volume was 50 μl.

[1] = system: human colon cancer HCT116 cells; assay: MTT Assay; type: cell-based; settings: HCT-116, 72 hours, Table 21
Procedure: Compounds at various concentrations were added to human colon cancer HCT116 cells plated in 96-well plates. Cells were incubated for 72 hours at 37° C. in 5% CO2 incubator. MTT (3-[4,5-dimethylthiazol-2-yl]-2,5 diphenyl tetrazolium bromide, Sigma) was added at a final concentration of 0.5 mg/ml and incubated with the cells for 4 hours before an equal volume of solubilization buffer (50% N,N-dimethylformamide, 20% SDS, pH 4.7) was added onto cultured cells. After overnight incubation, solubilized dye was quantified by colorimetric reading at […] using a reference at 630 nM. OD values were converted to cell numbers according to a standard growth curve of the relevant cell line. The concentration which reduces cell numbers to 50% of those of DMSO-treated cells is determined as MTT IC50.

[2] = Log D (comparison with previously disclosed compounds); type: physicochemical; settings: pH 7.4

HDAC-1, sequence (Q13547 whole entry): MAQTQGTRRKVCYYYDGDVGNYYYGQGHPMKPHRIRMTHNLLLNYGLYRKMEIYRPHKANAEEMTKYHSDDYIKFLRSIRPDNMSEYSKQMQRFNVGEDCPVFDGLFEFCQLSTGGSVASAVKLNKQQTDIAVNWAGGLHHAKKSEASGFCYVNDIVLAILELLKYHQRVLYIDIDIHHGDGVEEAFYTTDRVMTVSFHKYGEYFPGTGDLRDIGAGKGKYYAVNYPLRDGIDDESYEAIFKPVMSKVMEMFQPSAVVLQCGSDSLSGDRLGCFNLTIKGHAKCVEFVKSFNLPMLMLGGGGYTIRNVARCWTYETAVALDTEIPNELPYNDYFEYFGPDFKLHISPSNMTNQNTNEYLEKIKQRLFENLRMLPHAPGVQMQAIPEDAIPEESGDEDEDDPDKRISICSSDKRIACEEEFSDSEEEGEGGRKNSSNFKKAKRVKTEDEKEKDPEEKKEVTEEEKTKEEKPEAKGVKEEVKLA

| IC50 (HDAC-1) [nM] | IC50 [1] [nM] | logD [2] | Structure (SMILES) |
| --- | --- | --- | --- |
| < 1000 | < 1000 | 2.29 | CN1CCN(Cc2ccc(C(=O)Nc3cc(-c4cccs4)ccc3N)cc2)CC1 [compound 78, N-(2-amino-5-(thiophen-2-yl)phenyl)-4-((4-methylpiperazin-1-yl)methyl)-benzamide] |
| < 1000 | < 1000 | 1.05 | CN(C)CCN(C)C(=O)NCc1ccc(C(=O)Nc2cc(-c3cccs3)ccc2N)cc1 [compound 222, N-(2-amino-5-(thiophen-2-yl)phenyl)-4-((3-(2-(dimethylamino)ethyl)-3-methylureido)methyl)benzamide] |
| < 1000 | < 1000 | 1.85 | CN(C)CCOC(=O)NCc1ccc(C(=O)Nc2cc(-c3cccs3)ccc2N)cc1 [compound 221, 2-(Dimethylamino)ethyl 4-(2-amino-5-(thiophen-2-yl)phenylcarbamoyl)benzylcarbamate] |
| < 1000 | < 1000 | 1.54 | Nc1ccc(-c2cccs2)cc1NC(=O)c1ccc(CN2CCN(CCn3ccnc3)CC2)cc1 [compound 80, 4-((4-(2-(1H-imidazol-1-yl)ethyl)-piperazin-1-yl)-methyl)-N-(2-amino-5-(thiophen-2-yl)phenyl)-benzamide] |
| < 1000 | < 1000 | 3.03 | Nc1ccc(-c2cccs2)cc1NC(=O)c1ccc(CN2CCC[C@@H](O)C2)cc1 [compound 11, (R)-N-(2-amino-5-(thiophen-2-yl)phenyl)-4-((3-hydroxypiperidin-1-yl)methyl)benzamide] |
| < 1000 | < 1000 | 2.22 | COCCN1CCN(Cc2ccc(C(=O)Nc3cc(-c4cccs4)ccc3N)cc2)CC1 [compound 13, N-(2-amino-5-(thiophen-2-yl)phenyl)-4-((4-(2-methoxyethyl)piperazin-1-yl)methyl)benzamide] |
| < 1000 | < 1000 | 3.1 | COCCN(CCOC)Cc1ccc(C(=O)Nc2cc(-c3cccs3)ccc2N)cc1 [compound 10, N-(2-amino-5-(thiophen-2-yl)phenyl)-4-((bis(2-methoxyethyl)amino)methyl)benzamide] |
| < 1000 | – | 2.58 | CCN(CC)CCSc1ccc(C(=O)Nc2cc(-c3cccs3)ccc2N)cc1 [compound 107, N-(2-amino-5-(thiophen-2-yl)phenyl)-4-(2-(diethyl-amino)-ethylthio)-benzamide] |
| < 1000 | – | 2.32 | Nc1ccc(-c2cccs2)cc1NC(=O)N1CCN(Cc2ccc3c(c2)OCO3)CC1 [compound 316, N-(2-Amino-5-(thiophen-2-yl)phenyl)-4-(benzo[d][1,3]dioxol-5-ylmethyl)piperazine-1-carboxamide] |
| < 1000 | 1000 to 5000 | 2.6 | Nc1ccc(-c2cccs2)cc1NC(=O)c1ccc(CN2CC[C@@H](O)C2)cc1 [compound 83, (R)-N-(2-amino-5-(thiophen-2-yl)phenyl)-4-((3-hydroxy-pyrrolidin-1-yl)methyl)-benzamide] |
| < 1000 | < 1000 | 2.15 | CC(=O)N[C@@H]1CCN(Cc2ccc(C(=O)Nc3cc(-c4cccs4)ccc3N)cc2)C1 [compound 84, (R)-4-((3-acetamido-pyrrolidin-1-yl)methyl)-N-(2-amino-5-(thiophen-2-yl)phenyl)-benzamide] |
| < 1000 | < 1000 | 3.27 | Nc1ccc(-c2cccs2)cc1NC(=O)c1ccc(CN2CC[C@H](Nc3cccnc3)C2)cc1 [compound 249, (S)—N-(2-Amino-5-(thiophen-2-yl)phenyl)-4-((3-(pyridin-3-ylamino)pyrrolidin-1-yl)methyl)benzamide] |
| < 1000 | < 1000 | 3.32 | Nc1ccc(-c2cccs2)cc1NC(=O)c1ccc(CN2CCN(c3ccncc3)CC2)cc1 [compound 85, N-(2-amino-5-(thiophen-2-yl)phenyl)-4-((4-(pyridin-4-yl)piperazin-1-yl)methyl)-benzamide] |
| < 1000 | < 1000 | 1.6 | Nc1ccc(-c2cccs2)cc1NC(=O)c1ccc(N2CCC(N3CCCC3)CC2)cc1 [compound 105, N-(2-amino-5-(thiophen-2-yl)phenyl)-4-(4-(pyrrolidin-1-yl)piperidin-1-yl)benzamide] |
| < 1000 | < 1000 | 2.68 | Nc1ccc(-c2cccs2)cc1NC(=O)c1ccc(N2CCN(C3CCCC3)CC2)cc1 [compound 103, N-(2-amino-5-(thiophen-2-yl)phenyl)-4-(4-cyclopentyl-piperazin-1-yl)-benzamide] |
| < 1000 | < 1000 | 2.11 | CN(C)[C@H]1CCN(Cc2ccc(C(=O)Nc3cc(-c4cccs4)ccc3N)cc2)C1 [compound 81, (S)-N-(2-amino-5-(thiophen-2-yl)phenyl)-4-((3-(dimethylamino)-pyrrolidin-1-yl)methyl)-benzamide] |
| < 1000 | < 1000 | 0.86 | Nc1ccc(-c2cccs2)cc1NC(=O)c1ccc(CN2CCC[C@H]2CN2CCCC2)cc1 [compound 86, (S)-N-(2-amino-5-(thiophen-2-yl)phenyl)-4-((2-(pyrrolidin-1-ylmethyl)-pyrrolidin-1-yl)methyl)-benzamide] |
| < 1000 | < 1000 | 3.38 | Nc1ccc(-c2cccs2)cc1NC(=O)c1ccc(CN2CCN(c3ccccn3)CC2)cc1 [compound 89, N-(2-amino-5-(thiophen-2-yl)phenyl)-4-((4-(pyridin-2-yl)piperazin-1-yl)methyl)-benzamide] |
| < 1000 | < 1000 | 1.64 | CN(C)CCN(C)Cc1ccc(C(=O)Nc2cc(-c3cccs3)ccc2N)cc1 [compound 18, N-(2-amino-5-(thiophen-2-yl)phenyl)-4-(((2-(dimethylamino)ethyl)(methyl)amino)methyl)benzamide] |
| < 1000 | < 1000 | 3.15 | Nc1ccc(-c2cccs2)cc1NC(=O)c1ccc(CN2CCCC2)cc1 [compound 90, N-(2-amino-5-(thiophen-2-yl)phenyl)-4-(pyrrolidin-1-ylmethyl)-benzamide] |
| < 1000 | < 1000 | 2.59 | Nc1ccc(-c2cccs2)cc1NC(=O)c1ccc(CN2CCC(N3CCOCC3)CC2)cc1 [compound 77, N-(2-amino-5-(thiophen-2-yl)phenyl)-4-((4-morpholino-piperidin-1-yl)-methyl)-benzamide] |
| < 1000 | < 1000 | 3.3 | Nc1ccc(-c2cccs2)cc1NC(=O)c1ccc(CN2CCN(C3CCCC3)CC2)cc1 [compound 16, N-(2-amino-5-(thiophen-2-yl)phenyl)-4-((4-cyclopentylpiperazin-1-yl)methyl)benzamide] |
| < 1000 | < 1000 | 2.11 | CN(C)[C@@H]1CCN(Cc2ccc(C(=O)Nc3cc(-c4cccs4)ccc3N)cc2)C1 [compound 9, (R)—N-(2-Amino-5-(thiophen-2-yl)phenyl)-4-((3-(dimethylamino)pyrrolidin-1-yl)methyl)benzamide] |
| < 1000 | – | 3.21 | Nc1ccc(-c2ccccc2)cc1NC(=O)C1CCN(S(=O)(=O)c2ccc([N+](=O)[O-])cc2)CC1 [compound 320, N-(4-Aminobiphenyl-3-yl)-1-(4-nitrophenylsulfonyl)piperidine-4-carboxamide] |

From US8598168B2 (MethylGene Inc., priority 2006, dated 2013)
